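96-well plates; 48 h exposure; 5 concentrations. Endpoints by linear interpolation between flanking doses. Not reached: highest tested concentration assigned. GI50 = concentration required for 50% inhibition of growth. TGI denotes the concentration required for complete inhibition of growth.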

Common to all, as to experiment: NCI anticancer screen, dose series, 48 h
Assay [1] has as its system NCI-H23 lung.
Assay [2] concerns HL-60(TB) leukemia.
The test system of assay [3] is NCI-H226 lung.
Assay [4] has as its system MDA-MB-231 breast.
Assay [5] concerns ACHN renal.
Assay [6] relates to PC-3 prostate.
Assay [7] concerns 786-0 renal.
Assay [8] concerns NCI-H460 lung.
The test system of assay [9] is SN12C renal.
The test system of assay [10] is OVCAR-3 ovarian.

With `N#C/C(=C\c1ccc(Br)cc1)n1nnc2ccc(F)cc21`, the GI50 in assay [1] was 1.42 µM; in assay [2], 0.702 µM; in assay [3] it was 1.67 µM; in [4], 1.87 µM; in assay [5] it was 0.671 µM; in assay [6], 0.953 µM. Further, the GI50 was 0.846 µM in assay [7], 2.26 µM in [8], 1.72 µM in [9] and 0.373 µM in assay [10]. For the same compound, the TGI in [1] is 3.34 µM; in [2], 5.23 µM; in assay [3], 4.03 µM; in assay [4], 4.8 µM; in [5] it was 2.06 µM; in assay [6], 2.89 µM. The TGI was determined as 2.6 µM in [7], 5.33 µM in [8], 4.37 µM in [9] and 1.49 µM in assay [10].

For the compound `Cc1cnc(C(=O)NNc2nc3sc4c(c3c(=O)n2C)C(C)CCC4)cn1` (stereo not given), the GI50 was 0.719 µM in assay [1]; 0.269 µM in assay [2]; 0.404 µM in assay [3]; 0.335 µM in assay [4]; 0.308 µM in [5]; 0.465 µM in [6]. Besides, the GI50 in assay [7] was 0.511 µM; in assay [8] it was 0.194 µM; in [9] it was 0.51 µM; in [10] it was 0.259 µM. For the same compound, the TGI in assay [1] worked out at 10.3 µM; in assay [2], 0.765 µM; in [3] it was 3.03 µM; in [4], 4.04 µM; in [5], 2.02 µM; in assay [6], 11.2 µM. Also, the TGI in assay [7] turned out to be 5.52 µM; in assay [8] it was 2.02 µM; in assay [9], 4.55 µM; in [10], 1.8 µM.

Take `Cc1cnc(C(=O)Nc2nc3ccc(S(=O)(=O)Nc4ccc(C5(C(F)(F)F)CC5)cc4)cc3[nH]2)cn1`: the GI50 was 0.416 µM in [1]; 0.296 µM in assay [2]; 0.566 µM in assay [3]; 1.5 µM in [4]; 0.552 µM in assay [5]; 0.311 µM in assay [6]. Besides, the GI50 in assay [7] was 0.484 µM; in [8] it was 0.351 µM; in [9] it was 0.519 µM; in assay [10] it was 0.25 µM. Also, the TGI in assay [1] stood at 5.98 µM; in [2], 0.924 µM; in [3] it was 6.34 µM; in assay [4] it was 15.6 µM; in [5] it was 14 µM; in assay [6], 4.39 µM. Besides, the TGI came out at 6.65 µM in assay [7], 3.95 µM in assay [8], 5.87 µM in [9] and 1.34 µM in assay [10].

`CN(C)c1ccc(/C=C/c2cc[n+](C)c(/C=C/c3ccc(N(C)C)cc3)c2)cc1`: the GI50 was 0.194 µM in assay [1]; 0.19 µM in assay [2]; 0.271 µM in assay [3]; 0.322 µM in assay [4]; 0.401 µM in assay [5]; 0.248 µM in [6]. Also, the GI50 in assay [7] was 0.387 µM; in [8], 0.343 µM; in assay [9], 0.273 µM; in [10] it was 0.337 µM. For the same compound, the TGI worked out at 1.21 µM in [1]; 0.873 µM in [2]; 5.43 µM in assay [3]; 1.28 µM in assay [4]; 2.4 µM in assay [5]; 1.26 µM in assay [6]. Moreover, the TGI in assay [7] was 1.7 µM; in assay [8] it was 1.72 µM; in assay [9], 1.15 µM; in assay [10], 1.56 µM.

Consider `C=C1CC2(OC1=O)C(=O)Nc1ccccc12` (stereo not given), for which the GI50 was 6.34 µM in assay [1]; 1.73 µM in assay [2]; 1.85 µM in assay [3]; 4.62 µM in [4]; 1.09 µM in [5]; 5.26 µM in assay [6]. For the same compound, the GI50 in [7] was 2.39 µM; in [8], 6.48 µM; in assay [9], 3.74 µM; in [10], 1.11 µM. For the same compound, the TGI was determined as 23.1 µM in [1]; 3.85 µM in assay [2]; 5.24 µM in assay [3]; 17 µM in assay [4]; 2.29 µM in [5]; 18.8 µM in assay [6]. Besides, the TGI in assay [7] stood at 6.64 µM; in assay [8], 24.7 µM; in assay [9], 14.1 µM; in assay [10], 2.77 µM.

For the compound `C=C(Br)CNC(=O)CCC(=O)NCC(=C)Br`, the TGI in [1], in assay [2], in assay [3], in assay [4], in assay [5] and in [6] was more than 100 µM in each case. Besides, the TGI in assay [7], in assay [8], in assay [9] and in assay [10] was more than 100 µM throughout.

Take `CO/N=C(\C)CCC#Cc1ccccc1C(=O)OC`: the TGI in [1], in assay [2], in assay [3], in assay [4], in [5] and in assay [6] was more than 10 µM each time. Besides, the TGI in [7], in assay [8], in [9] and in [10] was more than 10 µM in each case.

As for `O=C(O)C1CC(O)CN1` (stereo not given), the TGI in [1], in assay [2], in assay [3], in assay [4], in assay [5] and in assay [6] was more than 100 µM in each case. The TGI in assay [7], in assay [8], in assay [9] and in assay [10] was more than 100 µM in each case.

Regarding `CC12CCC(Br)C(C)(C)C1CC=C1C(=O)OCC1O2` (stereo not given), the TGI was 32 µM in assay [1]; more than 100 µM in [2]; 23.2 µM in assay [3]; 31.5 µM in assay [4]; 26.2 µM in [5]; 24.2 µM in assay [6]. Further, the TGI is more than 48.6 µM in assay [7], 36.2 µM in [8], more than 55.9 µM in assay [9] and 31.3 µM in assay [10].

Source of the values: PubChem BioAssay (NCI).
